Experiments:
Format in all cases: biochemical
[1] = system: oxidoreductase enzyme derived from Rhizobium sp. GIN611; assay: Deglycosylation activity for flavonoid glycoside substrates by MALDI mass spectrometry; conditions: flavonoid glycoside as substrate
Excerpt: After reacting using ginsenoside Rh2, ginsenoside F2, ginsenoside Rb1, ginsenoside Rb2, ginsenoside Rc, ginsenoside Rb3, ginsenoside F1, ginsenoside Re or the isoflavone daidzin as a substrate, followed by extraction by adding the same volume of ethyl acetate, the ethyl acetate layer was dried and then dissolved again in ethanol, which was subjected to activity measurement by MALDI mass spectrometry.
The oxidoreductase enzyme derived from Rhizobium sp. GIN611, whose expression was induced, was reacted with the flavonoid icariin, camelliaside A or camelliaside B as a substrate in the manner described above and activity was measured by MALDI mass spectrometry. Oxidation of galactose attached to camelliaside A and deglycosylation activity thereof were identified. Also, oxidation of xylose attached to camelliaside B and deglycosylation activity thereof were identified. That is to say, the enzyme was confirmed to show deglycosylation activity for sugars attached to the flavonoid-based aglycones and to capable of degrading not only glucose but also galactose and xylose by oxidizing them (see FIGS. 12 and 13).

[2] = system: oxidoreductase enzyme derived from Rhizobium sp. GIN611; assay: Substrate specificity for glycone binding (α-/β-bonding); conditions: nitrophenyl glycoside used as substrate of the enzyme
Excerpt: Specificity of the enzyme for α-bonding and β-bonding was investigated using 4-nitrophenyl α-D-glucopyranoside, 4-nitrophenyl β-D-glucopyranoside, 4-nitrophenyl α-D-galactopyranoside and p-nitrophenyl β-D-galactopyranoside.

[3] = system: deglycosylating enzyme isolated from the selected Rhizobium sp. GIN611; assay: Substrate specificity of deglycosylating enzyme isolated from Rhizobium sp. GIN611; conditions: ginsenoside as substrate
Excerpt: Investigation of the substrate specificity using a deglycosylating enzyme isolated from the selected Rhizobium sp. […] The inventors of the present disclosure have disrupted and centrifuged the microorganism and produced a cell extract comprising the active enzyme from a supernatant.

Structure (SMILES): C[C@@H]1O[C@@H](OC[C@H]2O[C@@H](Oc3c(-c4ccc(O)cc4)oc4cc(O)cc(O)c4c3=O)[C@H](O[C@@H]3OC[C@@H](O)[C@H](O)[C@H]3O)[C@@H](O)[C@@H]2O)[C@H](O)[C@H](O)[C@H]1O [camelliaside B, kaempferol 3-O-(2-O-xylopyranosyl-6-O-rhamnopyranosyl)glucopyranoside]
- oxidation of attached sugar and deglycosylation activity [1]: identified

Structure (SMILES): O=[N+]([O-])c1ccc(O[C@@H]2O[C@H](CO)[C@@H](O)[C@H](O)[C@H]2O)cc1 [p-Nitrophenyl β-D-glucopyranoside]
- Relative activity (%) [2]: 100%

Structure (SMILES): O=[N+]([O-])c1ccc(O[C@@H]2O[C@H](CO)[C@H](O)[C@H](O)[C@H]2O)cc1 [p-Nitrophenyl β-D-galactopyranoside]
- Relative activity (%) [2]: 400%

Structure (SMILES): O=[N+]([O-])c1ccc(O[C@H]2O[C@H](CO)[C@H](O)[C@H](O)[C@H]2O)cc1 [p-Nitrophenyl α-D-galactopyranoside]
- Relative activity (%) [2]: 201%

Structure (SMILES): CC(C)=CCC[C@](C)(O[C@@H]1O[C@H](CO)[C@@H](O)[C@H](O)[C@H]1O)[C@H]1CC[C@]2(C)[C@@H]1[C@H](O)C[C@@H]1[C@@]3(C)CC[C@H](O)C(C)(C)[C@@H]3CC[C@]12C [ginsenoside CK, 20-O-β-D-glucopyranosyl-20(S)-protopanaxadiol]
- activity for substrate [3]: high activity

Structure (SMILES): O=[N+]([O-])c1ccc(O[C@H]2O[C@H](CO)[C@@H](O)[C@H](O)[C@H]2O)cc1 [p-Nitrophenyl α-D-glucopyranoside]
- Relative activity (%) [2]: 103%

Structure (SMILES): C[C@@H]1O[C@@H](OC[C@H]2O[C@@H](Oc3c(-c4ccc(O)cc4)oc4cc(O)cc(O)c4c3=O)[C@H](O[C@@H]3O[C@H](CO)[C@H](O)[C@H](O)[C@H]3O)[C@@H](O)[C@@H]2O)[C@H](O)[C@H](O)[C@H]1O [camelliaside A, kaempferol 3-O-(2-O-galactopyranosyl-6-O-rhamnopyranosyl)glucopyranoside]
- oxidation of attached sugar and deglycosylation activity [1]: identified

Reference: patent US9394562B2, “Soil microorganism, novel oxidoreductase separated from the soil microorganism, gene encoding the oxidoreductase, and method for producing aglycones using the microorganism, the oxidoreductase and the gene” (AMOREPACIFIC CORPORATION, priority 2010, dated 2016)
